Converted amounts (≈) assume the structure as drawn. Where two headings read alike, the source gives them in different places. A value given as a limit tells only on which side of the number the result lay.

For test [1], the system named is Staphylococcus aureus, MRSA (ATCC 33591). As to the kind of experiment: Antibacterial MIC assay (microbroth dilution, CLSI). Format: cell-based. Particulars: read-out: MIC Staphylococcus aureus, MRSA (ATCC 33591). From the text: (§1) All MIC testing of bacteria followed the Clinical and Laboratory Standards Institute (CLSI) guidelines for antimicrobial testing of aerobic bacteria (Methods for Dilution Antimicrobial Susceptibility Tests for Bacteria that Grow Aerobically; Approved Standard—Tenth Edition, M07-A10; Performance Standards for Antimicrobial Susceptibility Testing; Twenty-fifth Informational Supplement, M100-S25).
(§2) Briefly, the microbroth dilution MIC method was used to quantitatively measure the in vitro antibacterial activity of a compound against a given bacterial isolate. The following bacterial strains were evaluated: Staphylococcus aureus, MRSA (ATCC 33591) and Streptococcus pneumoniae (ATCC 49619). Bacteria were grown in cation-adjusted Mueller-Hinton broth, with additions as required per species growth requirements (e.g. 3% lysed horse blood for fastidious organisms such as S. pneumoniae). A direct colony suspension in saline was prepared from colonies on an overnight agar plate to achieve a turbidity equivalent to 0.5 McFarland standard, which was subsequently diluted into the assay plate to achieve 5×10^5 CFU/mL. Assays plates were prepared by 2-fold dilution of compound across the plate and included a positive growth control.

For test [2], the system named is Streptococcus pneumoniae (ATCC 49619). The test is described as above. Format: cell-based.
From the text: as §1
as §2, with “The following bacterial strains were evaluated: Staphylococcus aureus, MRSA (ATCC 33591) and Streptococcus pneumoniae (ATCC 49619).” left out

Where [3] appears, read: ATCC49619, read-out: MIC Streptococcus pneumoniae (ATCC 49619).
The mark [4] stands for this setting: microbroth dilution, cation-adjusted Mueller-Hinton broth, 35° C. for 16-20 hours.
The mark [5] stands for this setting: ATCC49619, microbroth dilution, 3% lysed horse blood, 35° C. for 16-20 hours, read-out: MIC Streptococcus pneumoniae (ATCC 49619).

As to `C=C[C@]1(C)C[C@@H](OC(=O)CNc2ccc3c(c2)B(O)OC3)[C@]2(C)[C@H](C)CC[C@]3(CCC(=O)[C@H]32)[C@@H](C)[C@@H]1O` [Compound 45, (3aR,4R,5R,7S,8S,9R,9aS,12R)-8-hydroxy-4,7,9,12-tetramethyl-3-oxo-7-vinyldecahydro-4,9a-propanocyclopenta[8]annulen-5-yl (1-hydroxy-1,3-dihydrobenzo[c][1,2]oxaborol-6-yl)glycinate], the figures for the MIC in test [1] and in test [2] (setting [3]) were less than 0.25 µg/mL and 0.5 to 2 µg/mL (≈ 0.981 to 3.93 µM), respectively.
Turning to `C=C[C@]1(C)C[C@@H](OC(=O)C[S@@+]([O-])c2ccc3c(c2F)B(O)OC3)[C@]2(C)[C@H](C)CC[C@]3(CCC(=O)[C@H]32)[C@@H](C)[C@@H]1O` [Compound 67, (3aR,4R,5R,7S,8S,9R,9aS,12R)-8-hydroxy-4,7,9,12-tetramethyl-3-oxo-7-vinyldecahydro-4,9a-propanocyclopenta[8]annulen-5-yl 2-((R)-(7-fluoro-1-hydroxy-1,3-dihydrobenzo[c][1,2]oxaborol-6-yl)sulfinyl)acetate], the MIC in test [1] is less than 0.25 µg/mL; in test [2] (setting [3]), 0.5 to 2 µg/mL (≈ 0.892 to 3.57 µM).
Take `C=C[C@]1(C)C[C@@H](OC(=O)COc2cc(CN)c3c(c2Cl)B(O)OC3)[C@]2(C)[C@H](C)CC[C@]3(CCC(=O)[C@H]32)[C@@H](C)[C@@H]1O` [Compound 8, (3aR,4R,5R,7S,8S,9R,9aS,12R)-8-hydroxy-4,7,9,12-tetramethyl-3-oxo-7-vinyldecahydro-4,9a-propanocyclopenta[8]annulen-5-yl 2-((4-(aminomethyl)-7-chloro-1-hydroxy-1,3-dihydrobenzo[c][1,2]oxaborol-6-yl)oxy)acetate]: the minimum inhibitory concentration (MIC) in test [1] was less than 0.25 µg/mL; in test [2] (setting [3]), 0.5 to 2 µg/mL (≈ 0.871 to 3.48 µM).
As to `C=C[C@]1(C)C[C@@H](OC(=O)COc2ccc3c(c2)B(O)OCC3)[C@]2(C)[C@H](C)CC[C@]3(CCC(=O)[C@H]32)[C@@H](C)[C@@H]1O` [Compound 69, (3aR,4R,5R,7S,8S,9R,9aS,12R)-8-hydroxy-4,7,9,12-tetramethyl-3-oxo-7-vinyldecahydro-4,9a-propanocyclopenta[8]annulen-5-yl 2-((1-hydroxy-3,4-dihydro-1H-benzo[c][1,2]oxaborinin-7-yl)oxy)acetate], the MIC in test [1] (setting [4]) and in test [2] (setting [5]) was less than 0.25 µg/mL in each case.
Consider `C=C[C@]1(C)C[C@@H](OC(=O)COc2ccc3c(c2F)B(O)OC3)[C@]2(C)[C@H](C)CC[C@]3(CCC(=O)[C@H]32)[C@@H](C)[C@@H]1O` [Compound 2, (3aR,4R,5R,7S,8S,9R,9aS,12R)-8-hydroxy-4,7,9,12-tetramethyl-3-oxo-7-vinyldecahydro-4,9a-propanocyclopenta[8]annulen-5-yl 2-((7-fluoro-1-hydroxy-1,3-dihydrobenzo[c][1,2]oxaborol-6-yl)oxy)acetate], for which the MIC in test [1] is less than 0.25 µg/mL; in test [2] (setting [3]), 0.5 to 2 µg/mL (≈ 0.946 to 3.78 µM).
Regarding `C=C[C@]1(C)C[C@@H](OC(=O)COc2ccc3c(c2)B(O)OC3)[C@]2(C)[C@H](C)CC[C@]3(CCC(=O)[C@H]32)[C@@H](C)[C@@H]1O` [Compound 1, (3aR,4R,5R,7S,8S,9R,9aS,12R)-8-hydroxy-4,7,9,12-tetramethyl-3-oxo-7-vinyldecahydro-4,9a-propanocyclopenta[8]annulen-5-yl 2-((1-hydroxy-1,3-dihydrobenzo[c][1,2]oxaborol-6-yl)oxy)acetate], the MIC in test [1] and in test [2] (setting [3]) was less than 0.25 µg/mL each time.
For `C=C[C@]1(C)C[C@@H](OC(=O)COc2cc3c(cc2F)COB3O)[C@]2(C)[C@H](C)CC[C@]3(CCC(=O)[C@H]32)[C@@H](C)[C@@H]1O` [Compound 3, (3aR,4R,5R,7S,8S,9R,9aS,12R)-8-hydroxy-4,7,9,12-tetramethyl-3-oxo-7-vinyldecahydro-4,9a-propanocyclopenta[8]annulen-5-yl 2-((5-fluoro-1-hydroxy-1,3-dihydrobenzo[c][1,2]oxaborol-6-yl)oxy)acetate], the MIC in test [1] and in test [2] (setting [3]) was less than 0.25 µg/mL throughout.
Consider `C=C[C@]1(C)C[C@@H](OC(=O)COc2ccc3c(c2F)B(O)N(C)N=C3)[C@]2(C)[C@H](C)CC[C@]3(CCC(=O)[C@H]32)[C@@H](C)[C@@H]1O` [Compound 85, (3aR,4R,5R,7S,8S,9R,9aS,12R)-8-hydroxy-4,7,9,12-tetramethyl-3-oxo-7-vinyldecahydro-4,9a-propanocyclopenta[8]annulen-5-yl 2-((8-fluoro-1-hydroxy-2-methyl-1,2-dihydrobenzo[d][1,2,3]diazaborinin-7-yl)oxy)acetate], for which the MIC in test [1] and in test [2] (setting [3]) was less than 0.25 µg/mL in each case.
Take `C=C[C@]1(C)C[C@@H](OC(=O)COc2ccc3c(c2F)B(O)N(S(C)(=O)=O)N=C3)[C@]2(C)[C@H](C)CC[C@]3(CCC(=O)[C@H]32)[C@@H](C)[C@@H]1O` [Compound 80, (3aR,4R,5R,7S,8S,9R,9aS,12R)-8-hydroxy-4,7,9,12-tetramethyl-3-oxo-7-vinyldecahydro-4,9a-propanocyclopenta[8]annulen-5-yl 2-((8-fluoro-1-hydroxy-2-(methylsulfonyl)-1,2-dihydrobenzo[d][1,2,3]diazaborinin-7-yl)oxy)acetate]: the results for the minimum inhibitory concentration (MIC) in test [1] and in test [2] (setting [3]) were less than 0.25 µg/mL and 0.5 to 2 µg/mL (≈ 0.808 to 3.23 µM), respectively.
`C=C[C@]1(C)C[C@@H](OC(=O)COc2ccc3c(c2)B(O)N(C)N=C3)[C@]2(C)[C@H](C)CC[C@]3(CCC(=O)[C@H]32)C[C@@H]1O` [Compound 83, (3aR,4R,5R,7S,8S,9aS,12R)-8-hydroxy-4,7,12-trimethyl-3-oxo-7-vinyldecahydro-4,9a-propanocyclopenta[8]annulen-5-yl 2-((1-hydroxy-2-methyl-1,2-dihydrobenzo[d][1,2,3]diazaborinin-7-yl)oxy)acetate]: the MIC in test [1] (setting [4]) and in test [2] (setting [5]) was less than 0.25 µg/mL in each case.
As for `C=C[C@]1(C)C[C@@H](OC(=O)Nc2ccc3c(c2)B(O)OC3)[C@]2(C)[C@H](C)CC[C@]3(CCC(=O)[C@H]32)[C@@H](C)C1=O` [Compound 43, (3aR,4R,5R,7S,9R,9aS,12R)-4,7,9,12-tetramethyl-3,8-dioxo-7-vinyldecahydro-4,9a-propanocyclopenta[8]annulen-5-yl (1-hydroxy-1,3-dihydrobenzo[c][1,2]oxaborol-6-yl)carbamate], the MIC in test [1] (setting [4]) and in test [2] (setting [5]) was 0.5 to 2 µg/mL (≈ 1.01 to 4.05 µM) each time.
With `C=C[C@]1(C)C[C@@H](OC(=O)COc2ccc3c(c2F)B(O)OCC3)[C@]2(C)[C@H](C)CC[C@]3(CCC(=O)[C@H]32)[C@@H](C)[C@@H]1O` [Compound 68, (3aR,4R,5R,7S,8S,9R,9aS,12R)-8-hydroxy-4,7,9,12-tetramethyl-3-oxo-7-vinyldecahydro-4,9a-propanocyclopenta[8]annulen-5-yl 2-((8-fluoro-1-hydroxy-3,4-dihydro-1H-benzo[c][1,2]oxaborinin-7-yl)oxy)acetate], the minimal inhibitory concentration (MIC) is less than 0.25 µg/mL in test [1] (setting [4]) and 0.5 to 2 µg/mL (≈ 0.922 to 3.69 µM) in test [2] (setting [5]).
Consider `C=C[C@]1(C)C[C@@H](OC(=O)CNCc2ccc3c(c2)B(O)OC3(C)C)[C@]2(C)[C@H](C)CC[C@]3(CCC(=O)[C@H]32)[C@@H](C)[C@@H]1O` [Compound 60, (3aR,4R,5R,7S,8S,9R,9aS,12R)-8-hydroxy-4,7,9,12-tetramethyl-3-oxo-7-vinyldecahydro-4,9a-propanocyclopenta[8]annulen-5-yl ((1-hydroxy-3,3-dimethyl-1,3-dihydrobenzo[c][1,2]oxaborol-6-yl)methyl)glycinate], for which the minimum inhibitory concentration (MIC) was 0.5 to 2 µg/mL (≈ 0.907 to 3.63 µM) in test [1] and 4 to 32 µg/mL (≈ 7.25 to 58 µM) in test [2] (setting [3]).

A word on the MIC: it is the smallest concentration in the dilution series that meets the test's criterion for growth inhibition.

Values taken from patent US10919916B2, “Boron-containing small molecules” (Bill & Melinda Gates Foundation, priority 2016, dated 2021).
